# Measurements taken from patent publication US10538498B2, “1,3,4-oxadiazole sulfonamide derivative compounds as histone deacetylase 6 inhibitor, and the pharmaceutical composition comprising the same” (Chong Kun Dang Pharmaceutical Corp., priority 2015, dated 2020).
# Target: T1, human recombinant HDAC6 (Homo sapiens, UniProt Q9UBN7)
# T1 construct: purchased Calbiochem 382180
# T1 sequence (Q9UBN7 1-1215): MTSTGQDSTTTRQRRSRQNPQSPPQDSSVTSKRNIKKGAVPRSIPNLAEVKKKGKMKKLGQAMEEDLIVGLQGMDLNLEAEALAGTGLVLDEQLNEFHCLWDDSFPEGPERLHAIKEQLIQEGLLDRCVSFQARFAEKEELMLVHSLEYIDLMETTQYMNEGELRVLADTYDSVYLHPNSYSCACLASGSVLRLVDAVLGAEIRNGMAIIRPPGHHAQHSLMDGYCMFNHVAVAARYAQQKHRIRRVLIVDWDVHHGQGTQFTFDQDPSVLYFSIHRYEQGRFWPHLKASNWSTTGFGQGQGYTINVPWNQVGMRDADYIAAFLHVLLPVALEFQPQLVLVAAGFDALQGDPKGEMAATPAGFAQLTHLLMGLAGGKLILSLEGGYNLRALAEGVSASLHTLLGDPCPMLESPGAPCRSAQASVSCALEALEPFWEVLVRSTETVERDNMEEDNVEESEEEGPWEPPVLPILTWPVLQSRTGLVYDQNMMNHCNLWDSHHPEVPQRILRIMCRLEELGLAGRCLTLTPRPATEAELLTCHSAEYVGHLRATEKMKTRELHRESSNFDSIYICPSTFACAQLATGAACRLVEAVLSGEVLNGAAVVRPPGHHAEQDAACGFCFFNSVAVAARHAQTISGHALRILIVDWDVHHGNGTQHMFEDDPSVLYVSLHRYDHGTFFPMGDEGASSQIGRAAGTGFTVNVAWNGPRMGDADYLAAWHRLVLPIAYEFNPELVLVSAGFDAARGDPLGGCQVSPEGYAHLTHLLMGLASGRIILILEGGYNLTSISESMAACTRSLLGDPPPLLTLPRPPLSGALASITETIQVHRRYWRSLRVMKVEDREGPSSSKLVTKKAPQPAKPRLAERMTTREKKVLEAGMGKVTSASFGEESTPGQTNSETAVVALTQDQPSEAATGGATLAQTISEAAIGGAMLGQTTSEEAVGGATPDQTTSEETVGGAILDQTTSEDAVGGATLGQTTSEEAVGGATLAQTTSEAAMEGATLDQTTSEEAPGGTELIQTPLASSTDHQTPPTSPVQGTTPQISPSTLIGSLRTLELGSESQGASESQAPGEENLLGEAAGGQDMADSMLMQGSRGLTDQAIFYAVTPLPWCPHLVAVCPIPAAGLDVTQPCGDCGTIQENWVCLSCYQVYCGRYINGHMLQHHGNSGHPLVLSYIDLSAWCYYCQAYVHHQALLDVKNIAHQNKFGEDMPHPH
# Assay: HDAC6 enzyme activity inhibition assay (HDAC Fluorimetric Drug Discovery Kit)
# Format: biochemical
# Details: for HDAC6 selectivity (fold): HDAC1 vs HDAC6; for IC50: same protocol as the HDAC1 enzyme activity test
# Procedure, shortened: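 IC50s derived from fluorescence (Ex 360, Em 460) read after a 30-min developer step. Beforehand, compounds in 5-fold dilution series reacted 60 min at 30° C with 0.3 μg human recombinant enzyme and 10 μM Fluor de Lys-SIRT1 substrate.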
HDAC6 selectivity (fold),IC50,Compound
7143 fold,14 nM,"CN1CCN(CCS(=O)(=O)N(Cc2ccc(-c3nnc(C(F)F)o3)cc2F)c2ccc(F)c(Cl)c2)CC1 [Compound 11552, N-(3-chloro-4-fluorophenyl)-N-(4-(5-(difluoromethyl)-1,3,4-oxadiazol-2-yl)-2-fluorobenzyl)-2-(4-methylpiperazin-1-yl)ethane-1-sulfonamide]"
5882 fold,17 nM,"CC(=O)N1CCN(CCS(=O)(=O)N(Cc2ccc(-c3nnc(C(F)F)o3)cc2F)c2ccc(F)c(Cl)c2)CC1 [Compound 11553, 2-(4-acetylpiperazin-1-yl)-N-(3-chloro-4-fluorophenyl)-N-(4-(5-(difluoromethyl)-1,3,4-oxadiazol-2-yl)-2-fluorobenzyl)ethane-1-sulfonamide]"
4348 fold,23 nM,"CS(=O)(=O)N1CCN(CCS(=O)(=O)N(Cc2ccc(-c3nnc(C(F)F)o3)cc2F)c2ccc(F)c(Cl)c2)CC1 [Compound 11554, N-(3-chloro-4-fluorophenyl)-N-(4-(5-(difluoromethyl)-1,3,4-oxadiazol-2-yl)-2-fluorobenzyl)-2-(4-(methylsulfonyl)piperazin-1-yl)ethane-1-sulfonamide]"
4762 fold,21 nM,"CS(=O)(=O)N(Cc1ncc(-c2nnc(C(F)F)o2)cn1)c1ccccc1 [Compound 11564, N-((5-(5-(difluoromethyl)-1,3,4-oxadiazol-2-yl)pyrimidin-2-yl)methyl)-N-phenylmethanesulfonamide]"
1124 fold,89 nM,"CS(=O)(=O)N(Cc1ccc(-c2nnc(C(F)F)o2)nn1)c1ccccc1 [Compound 11566, N-((6-(5-(difluoromethyl)-1,3,4-oxadiazol-2-yl)pyridazin-3-yl)methyl)-N-phenylmethanesulfonamide]"
4348 fold,23 nM,"CS(=O)(=O)N1CC(N2CCN(CCS(=O)(=O)N(Cc3ccc(-c4nnc(C(F)F)o4)cc3F)c3ccc(F)c(Cl)c3)CC2)C1 [Compound 11582, N-(3-chloro-4-fluorophenyl)-N-(4-(5-(difluoromethyl)-1,3,4-oxadiazol-2-yl)-2-fluorobenzyl)-2-(4-(1-(methylsulfonyl)azetidin-3-yl)piperazin-1-yl)ethane-1-sulfonamide]"
4348 fold,23 nM,"O=S(=O)(CCN1CCN(C2COC2)CC1)N(Cc1ccc(-c2nnc(C(F)F)o2)cc1F)c1ccc(F)c(Cl)c1 [Compound 11583, N-(3-chloro-4-fluorophenyl)-N-(4-(5-(difluoromethyl)-1,3,4-oxadiazol-2-yl)-2-fluorobenzyl)-2-(4-(oxetan-3-yl)piperazin-1-yl)ethane-1-sulfonamide]"
2273 fold,44 nM,"O=S(=O)(CCCN1CCOCC1)N(Cc1ccc(-c2nnc(C(F)F)o2)cc1F)c1ccccc1 [Compound 11588, N-(4-(5-(difluoromethyl)-1,3,4-oxadiazol-2-yl)-2-fluorobenzyl)-3-morpholino-N-phenylpropane-1-sulfonamide]"
2326 fold,43 nM,"CN1CCN(CCCS(=O)(=O)N(Cc2ccc(-c3nnc(C(F)F)o3)cc2F)c2ccccc2)CC1 [Compound 11589, N-(4-(5-(difluoromethyl)-1,3,4-oxadiazol-2-yl)-2-fluorobenzyl)-3-(4-methylpiperazin-1-yl)-N-phenylpropane-1-sulfonamide]"
66 fold,1520 nM,"CS(=O)(=O)N(Cc1cnc(-c2nnc(C(F)(F)F)o2)nc1)c1ccccc1 [Compound 11606, N-phenyl-N-((2-(5-(trifluoromethyl)-1,3,4-oxadiazol-2-yl)pyrimidin-5-yl)methyl)methanesulfonamide]"
719 fold,139 nM,"O=S(=O)(C1CCN(C2COC2)CC1)N(Cc1ccc(-c2nnc(C(F)F)o2)cc1F)c1ccccc1 [Compound 11625, N-(4-(5-(difluoromethyl)-1,3,4-oxadiazol-2-yl)-2-fluorobenzyl)-1-(oxetan-3-yl)-N-phenylpiperidine-4-sulfonamide]"
